Here are results for 2 molecules from US20090142846A1, “METHODS FOR MEASURING BIOCHEMICAL REACTIONS” (EKSIGENT TECHNOLOGIES, LLC, priority 2005, published 2009).

In test [1] the target is rabbit muscle lactate dehydrogenase (LDH) (Oryctolagus cuniculus, UniProt P13491). Nature of the test: Continuous variation method on a microtiter plate (step concentration gradients). The class given is biochemical. Conditions: limited data. An excerpt: Determination of the mechanism of inhibition by the inhibitor oxalate with respect to the substrate NAD^+ against the enzyme rabbit muscle lactate dehydrogenase (LDH) using a microtiter plate to generate individual step concentration gradients was attempted. FIG. 49 is a graph showing the results of the experiment. An attempt to determine the mechanism of inhibition by the inhibitor oxalate with respect to the substrate lactate against the enzyme rabbit muscle LDH using a microtiter plate to generate individual step concentration gradients was attempted. FIG. 50 is a graph showing the results of this experiment.

A further test has as its system LDH. As to conditions: cited from earlier work.
In the next test the target is P. falciparum LDH (Plasmodium falciparum, UniProt Q27743). The experiment in a line: Fluorescence-coupled LDH enzyme assay on microfluidics system with continuously variable concentration gradient. It counts as biochemical. From the text:
A fluorescence-coupled enzyme assay was developed using a microfluidics system described herein for creating a continuously variable concentration gradient to monitor the reduction of NAD^+ by the enzyme LDH to give a fluorescent end product. This system was then adapted to measure potency and determine mechanism of inhibition by various inhibitors of LDH.
One of the products of the reaction in the assay, NADH, is coupled to Thermus thermophilus NADH oxidase to generate H2O2, which in turn is coupled to horseraddish peroxidase which reacts with […] and amplex red (Molecular Probes, Inc., Eugene, Oreg., U.S.A.) to give the fluorescent product resorufin. […]
The novel data analysis techniques described herein for determining the mechanism of inhibition of an inhibitor (or mechanism of activation of an activator) are applied to the data produced from the microfluidics system. The titration of the enzyme with a continuous linear variation of inhibitor and substrate from zero to a pre-determined finite concentration yields a characteristic rate profile that is defined by the specific type of interaction of the inhibitor and enzyme with respect to the substrate. […]
The titration of LDH with a linear gradient of NAD^+ was performed on the microfluidics system described herein with the change in relative fluorescence intensity monitored under initial rate conditions. […]

Read-outs that look alike come from different tables or passages of the source.

Sequence of P. falciparum LDH (Q27743 whole entry): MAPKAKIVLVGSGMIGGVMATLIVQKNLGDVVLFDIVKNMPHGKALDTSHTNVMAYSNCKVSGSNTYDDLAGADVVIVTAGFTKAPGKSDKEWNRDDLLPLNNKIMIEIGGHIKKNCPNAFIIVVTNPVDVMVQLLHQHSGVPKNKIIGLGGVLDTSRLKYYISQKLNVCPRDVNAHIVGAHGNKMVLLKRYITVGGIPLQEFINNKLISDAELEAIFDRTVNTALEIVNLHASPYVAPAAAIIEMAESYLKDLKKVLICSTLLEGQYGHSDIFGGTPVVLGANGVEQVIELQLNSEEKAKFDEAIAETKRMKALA

As for `O=C(O)C(=O)O` [oxalate], the mechanism of inhibition entry was “uncompetitive inhibitor” in test [1] (with respect to NAD^+, ambiguous); “competitive inhibitor” in test [1] (with respect to lactate); “uncompetitive inhibition” at P. falciparum LDH (with respect to substrate NAD^+). In addition, the inhibition mechanism entry with LDH (with respect to NAD^+) is listed as “uncompetitive”; in the test with LDH (with respect to lactate, reported previously) it was “competitive inhibitor”.
A word on the Km: it is the substrate concentration at which the rate is half of its maximum. Turning to `NC(=O)c1ccc[n+]([C@@H]2O[C@H](COP(=O)([O-])OP(=O)(O)OC[C@H]3O[C@@H](n4cnc5c(N)ncnc54)[C@H](O)[C@@H]3O)[C@@H](O)[C@H]2O)c1` [NAD^+], the Km at P. falciparum LDH (titration of LDH with linear gradient of NAD^+, initial rate conditions) worked out at 54 ± 2 µM.
